Test results published in PubChem BioAssay (NCI).
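Each compound was tested at five concentrations against cells in 96-well plates for 48 hours. GI50: concentration for 50% inhibition of growth. TGI marks complete inhibition of growth.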

How the values were obtained:
Test in all cases: inhibition of tumour cell growth, NCI panel, 48 h
HOP-62 NSCLC = system: HOP-62 NSCLC
MOLT-4 leukemia = system: MOLT-4 leukemia
T-47D breast = system: T-47D breast
EKVX NSCLC = system: EKVX NSCLC
UO-31 renal = system: UO-31 renal
CCRF-CEM leukemia = system: CCRF-CEM leukemia
HOP-92 NSCLC = system: HOP-92 NSCLC
COLO 205 colon = system: COLO 205 colon
RXF 393 renal = system: RXF 393 renal
MDA-MB-435 = system: MDA-MB-435
HCT-116 colon = system: HCT-116 colon
SF-295 CNS = system: SF-295 CNS
KM12 colon = system: KM12 colon
A498 renal = system: A498 renal
OVCAR-8 ovarian = system: OVCAR-8 ovarian
MCF7 breast = system: MCF7 breast
U251 CNS = system: U251 CNS
HCC-2998 colon = system: HCC-2998 colon
DU-145 prostate = system: DU-145 prostate
SN12C renal = system: SN12C renal
NCI/ADR-RES ovarian = system: NCI/ADR-RES ovarian
OVCAR-4 ovarian = system: OVCAR-4 ovarian
RPMI-8226 leukemia = system: RPMI-8226 leukemia
IGROV1 ovarian = system: IGROV1 ovarian
HCT-15 colon = system: HCT-15 colon
SR leukemia = system: SR leukemia
SK-MEL-28 melanoma = system: SK-MEL-28 melanoma
SW-620 colon = system: SW-620 colon
SK-OV-3 ovarian = system: SK-OV-3 ovarian
SF-268 CNS = system: SF-268 CNS
UACC-257 melanoma = system: UACC-257 melanoma
A549 NSCLC = system: A549 NSCLC
UACC-62 melanoma = system: UACC-62 melanoma
MALME-3M melanoma = system: MALME-3M melanoma
HT29 colon = system: HT29 colon
K-562 leukemia = system: K-562 leukemia
NCI-H460 lung = system: NCI-H460 lung
HS 578T breast = system: HS 578T breast
HL-60(TB) leukemia = system: HL-60(TB) leukemia
ACHN renal = system: ACHN renal
SNB-75 CNS = system: SNB-75 CNS
TK-10 renal = system: TK-10 renal
SK-MEL-5 melanoma = system: SK-MEL-5 melanoma
786-0 renal = system: 786-0 renal
NCI-H23 lung = system: NCI-H23 lung
M14 melanoma = system: M14 melanoma
OVCAR-5 ovarian = system: OVCAR-5 ovarian
NCI-H226 lung = system: NCI-H226 lung
SF-539 CNS = system: SF-539 CNS
MDA-MB-231 breast = system: MDA-MB-231 breast
SNB-19 CNS = system: SNB-19 CNS
CAKI-1 renal = system: CAKI-1 renal
PC-3 prostate = system: PC-3 prostate

SMILES: N#CCCC(CC#N)N1CCN(CCO)CC1 (configuration not stated)
- TGI (HOP-62 NSCLC): > 100 µM
- TGI (MOLT-4 leukemia): > 100 µM
- TGI (T-47D breast): > 100 µM
- TGI (EKVX NSCLC): > 100 µM
- TGI (UO-31 renal): > 100 µM
- TGI (CCRF-CEM leukemia): > 100 µM
- TGI (HOP-92 NSCLC): > 100000 nM
- TGI (COLO 205 colon): > 100 µM
- TGI (RXF 393 renal): > 100 µM
- TGI (MDA-MB-435): > 100 µM
- TGI (HCT-116 colon): > 100 µM
- TGI (SF-295 CNS): > 100000 nM
- TGI (KM12 colon): > 100 µM
- TGI (A498 renal): > 100000 nM
- TGI (OVCAR-8 ovarian): > 100000 nM
- TGI (MCF7 breast): > 100 µM
- TGI (U251 CNS): > 100 µM
- TGI (HCC-2998 colon): > 100000 nM
- TGI (DU-145 prostate): > 100 µM
- TGI (SN12C renal): > 100 µM
- TGI (NCI/ADR-RES ovarian): > 100 µM
- TGI (OVCAR-4 ovarian): > 100 µM
- TGI (RPMI-8226 leukemia): > 100 µM
- TGI (IGROV1 ovarian): > 100000 nM
- TGI (HCT-15 colon): > 100 µM
- TGI (SR leukemia): > 100 µM
- TGI (SK-MEL-28 melanoma): > 100 µM
- TGI (SW-620 colon): > 100 µM
- TGI (SK-OV-3 ovarian): > 100000 nM
- TGI (SF-268 CNS): > 100 µM
- TGI (UACC-257 melanoma): > 100 µM
- TGI (A549 NSCLC): > 100 µM
- TGI (UACC-62 melanoma): > 100 µM
- TGI (MALME-3M melanoma): > 100 µM
- TGI (HT29 colon): > 100 µM
- TGI (K-562 leukemia): > 100 µM
- TGI (NCI-H460 lung): > 100 µM
- TGI (HS 578T breast): > 100 µM
- TGI (HL-60(TB) leukemia): > 100000 nM
- TGI (ACHN renal): > 100 µM
- TGI (SNB-75 CNS): > 100 µM
- TGI (TK-10 renal): > 100000 nM
- TGI (SK-MEL-5 melanoma): > 100 µM
- TGI (786-0 renal): > 100 µM
- TGI (NCI-H23 lung): > 100 µM
- TGI (M14 melanoma): > 100 µM
- TGI (OVCAR-5 ovarian): > 100 µM
- TGI (NCI-H226 lung): > 100 µM
- TGI (SF-539 CNS): > 100 µM
- TGI (MDA-MB-231 breast): > 100000 nM
- TGI (SNB-19 CNS): > 100 µM

SMILES: CN(C)c1ccc(/C=C/c2sc3ccc4ccccc4c3[n+]2C)cc1
- GI50 (T-47D breast): 367 nM
- GI50 (UO-31 renal): 401 nM
- TGI (UO-31 renal): 3.84 µM
- GI50 (CCRF-CEM leukemia): 330 nM
- TGI (CCRF-CEM leukemia): > 100 µM
- GI50 (HOP-92 NSCLC): 636 nM
- TGI (HOP-92 NSCLC): 2840 nM
- GI50 (SF-295 CNS): 395 nM
- TGI (SF-295 CNS): 2320 nM
- GI50 (A498 renal): 539 nM
- TGI (A498 renal): 2850 nM
- GI50 (OVCAR-8 ovarian): 285 nM
- TGI (OVCAR-8 ovarian): 1670 nM
- GI50 (HCC-2998 colon): 365 nM
- TGI (HCC-2998 colon): 1570 nM
- GI50 (SN12C renal): 359 nM
- TGI (SN12C renal): 3.43 µM
- GI50 (NCI/ADR-RES ovarian): 2810 nM
- TGI (NCI/ADR-RES ovarian): > 100 µM
- GI50 (IGROV1 ovarian): 368 nM
- TGI (IGROV1 ovarian): 1660 nM
- GI50 (HCT-15 colon): 692 nM
- TGI (HCT-15 colon): > 31.5 µM
- GI50 (SK-OV-3 ovarian): 482 nM
- TGI (SK-OV-3 ovarian): 2400 nM
- GI50 (CAKI-1 renal): 211 nM
- TGI (CAKI-1 renal): 627 nM
- GI50 (K-562 leukemia): 199 nM
- TGI (K-562 leukemia): > 100 µM
- GI50 (HL-60(TB) leukemia): 330 nM
- TGI (HL-60(TB) leukemia): 1180 nM
- GI50 (ACHN renal): 537 nM
- TGI (ACHN renal): > 100 µM
- GI50 (TK-10 renal): 410 nM
- TGI (TK-10 renal): 1920 nM
- GI50 (PC-3 prostate): 315 nM
- TGI (PC-3 prostate): 1710 nM
- GI50 (MDA-MB-231 breast): 526 nM
- TGI (MDA-MB-231 breast): 2620 nM
- GI50 (SNB-19 CNS): 521 nM
- TGI (SNB-19 CNS): > 100 µM
